# Experimental data published in US20060148760A1, “Method for the sysnthesis of compounds of formula I and their uses thereof” (TransTech Pharma, priority 2000, published 2006).
# Where a name gives a salt, the structure may show the parent alone.
# System: S-100b/RAGE interaction in Glioma cells
# Assay: Functional assay: inhibition of NF-κB in Glioma cells (S-100b/RAGE interaction)
# Assay type: cell-based
# Settings: Glioma cell
smiles,measurement,value
"CCCCOc1cc(C(=O)OCCN(CC)CC)ccc1NC(=O)[C@H](N)Cc1ccc2ccccc2c1 [Example 1, (R)-3-(2-Naphthyl)-2-aminopropionic Acid 4-Diethylaminoethoxycarbonyl-2-butoxyaniline Amide Dihydrochloride]",IC50,3.3 µM
